Source: ChEMBL document CHEMBL3120114, “Synthesis and evaluation of new coumarin derivatives as potential atypical antipsychotics” (Eur J Med Chem, 2014)

Tests used:
[1] = molecular target: 5-hydroxytryptamine receptor 2A (Rattus norvegicus, UniProt P14842); assay: Displacement of [3H]Ketanserin from 5HT2A receptor in Sprague-Dawley rat brain cortex homogenate after 30 mins by liquid scintillation counting; type: tissue-based
[2] = molecular target: T1, 5-hydroxytryptamine receptor 1A (Rattus norvegicus, UniProt P19327); assay: Displacement of [3H]8-OH-DPAT from 5HT1A receptor in Sprague-Dawley rat brain cortex homogenate after 30 mins by liquid scintillation counting; type: tissue-based
T1 sequence (P19327 whole entry): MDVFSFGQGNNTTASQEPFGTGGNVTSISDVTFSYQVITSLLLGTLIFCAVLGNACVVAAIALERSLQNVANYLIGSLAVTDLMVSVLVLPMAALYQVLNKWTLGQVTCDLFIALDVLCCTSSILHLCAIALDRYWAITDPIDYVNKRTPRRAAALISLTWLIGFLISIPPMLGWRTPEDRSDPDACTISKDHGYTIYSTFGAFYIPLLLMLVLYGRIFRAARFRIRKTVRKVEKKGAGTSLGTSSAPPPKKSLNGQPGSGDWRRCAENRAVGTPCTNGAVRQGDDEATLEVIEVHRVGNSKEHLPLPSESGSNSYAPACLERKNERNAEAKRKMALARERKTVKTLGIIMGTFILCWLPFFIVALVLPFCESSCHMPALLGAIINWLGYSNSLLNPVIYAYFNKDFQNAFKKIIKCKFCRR

Histamine H1 receptor = Histamine H1 receptor (Cavia porcellus, UniProt P31389); assay: Displacement of [3H]mepyramine from histamine H1 receptor in guinea pig cerebellum homogenate after 60 mins by liquid scintillation counting; type: tissue-based
Histamine H1 receptor, sequence (P31389 whole entry): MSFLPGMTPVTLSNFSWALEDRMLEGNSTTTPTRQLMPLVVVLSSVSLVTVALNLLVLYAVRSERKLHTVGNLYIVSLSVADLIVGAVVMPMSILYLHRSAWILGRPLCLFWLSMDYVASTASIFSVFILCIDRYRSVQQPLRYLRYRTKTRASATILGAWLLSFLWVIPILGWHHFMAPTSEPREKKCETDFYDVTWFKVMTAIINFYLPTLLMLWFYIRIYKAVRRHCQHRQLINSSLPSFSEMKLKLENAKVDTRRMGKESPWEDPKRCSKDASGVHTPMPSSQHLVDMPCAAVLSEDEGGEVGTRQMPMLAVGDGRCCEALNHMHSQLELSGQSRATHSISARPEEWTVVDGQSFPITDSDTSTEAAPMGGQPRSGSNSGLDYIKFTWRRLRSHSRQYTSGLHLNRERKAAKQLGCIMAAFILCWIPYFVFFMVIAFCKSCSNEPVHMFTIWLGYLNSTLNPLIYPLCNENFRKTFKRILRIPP

D(3) dopamine receptor = D(3) dopamine receptor (Rattus norvegicus, UniProt P19020); assay: Displacement of [3H]7-OH-DPA from dopamine D3 receptor in Sprague-Dawley rat olfactory tubercle homogenate after 60 mins by liquid scintillation counting; type: tissue-based
D(3) dopamine receptor, sequence (P19020 whole entry): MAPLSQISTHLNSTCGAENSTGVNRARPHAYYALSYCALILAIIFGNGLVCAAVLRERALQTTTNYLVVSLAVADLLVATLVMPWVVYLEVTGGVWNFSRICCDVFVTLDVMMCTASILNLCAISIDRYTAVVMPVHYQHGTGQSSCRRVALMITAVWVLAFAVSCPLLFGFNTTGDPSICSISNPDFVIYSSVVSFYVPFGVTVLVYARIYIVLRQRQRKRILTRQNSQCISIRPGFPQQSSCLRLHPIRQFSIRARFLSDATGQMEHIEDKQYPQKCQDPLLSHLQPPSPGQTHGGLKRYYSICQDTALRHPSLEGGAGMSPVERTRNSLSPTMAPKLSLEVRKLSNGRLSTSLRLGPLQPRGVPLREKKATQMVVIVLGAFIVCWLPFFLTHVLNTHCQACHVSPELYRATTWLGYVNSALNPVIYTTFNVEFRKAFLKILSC

D(2) dopamine receptor = D(2) dopamine receptor (Rattus norvegicus, UniProt P61169); assay: Displacement of [3H]spiperone from dopamine D2 receptor in Sprague-Dawley rat striatum homogenate after 30 mins by liquid scintillation counting
D(2) dopamine receptor, sequence (P61169 whole entry): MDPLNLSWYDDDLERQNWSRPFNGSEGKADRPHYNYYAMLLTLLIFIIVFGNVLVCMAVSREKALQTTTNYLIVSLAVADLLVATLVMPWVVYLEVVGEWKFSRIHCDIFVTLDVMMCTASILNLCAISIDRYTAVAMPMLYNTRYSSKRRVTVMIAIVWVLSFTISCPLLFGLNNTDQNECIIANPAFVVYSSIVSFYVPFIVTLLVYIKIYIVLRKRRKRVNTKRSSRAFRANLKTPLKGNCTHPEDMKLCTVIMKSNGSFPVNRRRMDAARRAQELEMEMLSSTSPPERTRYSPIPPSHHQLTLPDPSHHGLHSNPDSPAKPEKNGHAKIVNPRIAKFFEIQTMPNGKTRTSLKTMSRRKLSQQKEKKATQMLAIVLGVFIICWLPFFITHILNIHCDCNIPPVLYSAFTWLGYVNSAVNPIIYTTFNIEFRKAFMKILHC

Mus musculus [3] = assay: Toxicity in po dosed Kunming mouse assessed as induction of catalepsy; type: organism-based; settings: in vivo
Mus musculus [4] = assay: Antipsychotic activity in po dosed Kunming mouse assessed as reduction in MK801-induced hyperactivity compound administered 30 mins prior to MK801 challenge measured for 90 mins post challenge; type: functional
Mus musculus [5] = assay: Antipsychotic activity in po dosed Kunming mouse assessed as reversal of apomorphine-induced cage climbing response compound administered 30 mins prior to apomorphine challenge measured for 30 mins post challenge; type: functional
[6] = Acute toxicity in po dosed Kunming mouse assessed as survival measured after 24 hrs; type: organism-based; settings: in vivo
in vivo [7] = settings: Kunming, mouse, po
Description: Therapeutic index, ratio of ED50 for induction of catalepsy to ED50 for antipsychotic activity in po dosed Kunming mouse assessed as reduction in MK801-induced hyperactivity

in vivo [8] = settings: Kunming, mouse, po; remark: listed apart in the source
Description: Therapeutic index, ratio of ED50 for induction of catalepsy to ED50 for antipsychotic activity in po dosed Kunming mouse assessed as reversal of apomorphine-induced cage climbing response

5-hydroxytryptamine receptor 2A, sequence (P14842 whole entry): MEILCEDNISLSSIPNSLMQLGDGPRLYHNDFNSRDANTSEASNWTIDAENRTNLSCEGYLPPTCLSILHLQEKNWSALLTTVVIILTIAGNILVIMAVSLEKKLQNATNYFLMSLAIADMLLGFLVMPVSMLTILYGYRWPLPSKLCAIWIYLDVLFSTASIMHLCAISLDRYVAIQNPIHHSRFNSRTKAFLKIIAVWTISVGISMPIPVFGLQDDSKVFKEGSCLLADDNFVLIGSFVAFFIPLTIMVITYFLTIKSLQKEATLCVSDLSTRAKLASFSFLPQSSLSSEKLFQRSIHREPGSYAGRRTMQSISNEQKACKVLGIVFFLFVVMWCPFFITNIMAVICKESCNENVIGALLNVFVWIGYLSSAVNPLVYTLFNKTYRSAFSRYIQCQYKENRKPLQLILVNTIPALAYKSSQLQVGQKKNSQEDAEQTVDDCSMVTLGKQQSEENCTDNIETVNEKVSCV

Compound | Ki [1] | Ki [2] | Ki (D(2) dopamine receptor) | also measured
Cc1c(OCCCCN2CCC(c3noc4cc(F)ccc34)CC2)ccc2c3c(c(=O)oc12)CCC3 | 2.2 nM | 7.8 nM | 12.7 nM | ED50 (Mus musculus [3]): 66.47 mg/kg; Activity (Mus musculus [4]): Dose-dependent effect; ED50 (Mus musculus [4]): 0.31 mg/kg; Activity (Mus musculus [5]): Dose-dependent effect; ED50 (Mus musculus [5]): 0.61 mg/kg; LD50 at 24 h [6]: > 2000 mg/kg; Ki (Histamine H1 receptor): 1830 nM; Ki (D(3) dopamine receptor): 13.6 nM; selectivity ratio (in vivo [7]): 214; selectivity ratio (in vivo [8]): 109
COc1ccc(N2CCN(CCCCOc3ccc4c5c(c(=O)oc4c3)CCC5)CC2)cc1 | > 10000 nM | 1240 nM | > 10000 nM | 
COc1cccc(N2CCN(CCCCOc3ccc4c5c(c(=O)oc4c3)CCC5)CC2)c1 | 895 nM | 22.4 nM | 1060 nM | 
O=c1oc2c(Cl)c(OCCCCN3CCC(c4noc5cc(F)ccc45)CC3)ccc2c2c1CCC2 | 5.3 nM | 11.4 nM | 18.9 nM | Ki (Histamine H1 receptor): 13.6 nM; Ki (D(3) dopamine receptor): 13.9 nM
O=c1oc2cc(OCCCCN3CCN(c4ccc(F)cc4)CC3)ccc2c2c1CCC2 | 16.5 nM | 28.9 nM | > 10000 nM | 
COc1ccccc1N1CCN(CCCOc2ccc3c4c(c(=O)oc3c2)CCC4)CC1 | 618 nM | 640 nM | > 10000 nM | 
O=c1oc2cc(OCCCN3CCC(c4noc5cc(F)ccc45)CC3)ccc2c2c1CCC2 | 188 nM | > 10000 nM | > 10000 nM | 
COc1ccccc1N1CCN(CCCCOc2ccc3c4c(c(=O)oc3c2C)CCC4)CC1 | 175 nM | 349 nM | 570 nM | 
Cc1nc2n(c(=O)c1CCN1CCC(c3noc4cc(F)ccc34)CC1)CCCC2 [RISPERIDONE] |  |  |  | ED50 (Mus musculus [3]): 0.43 mg/kg; ED50 (Mus musculus [4]): 0.017 mg/kg; ED50 (Mus musculus [5]): 0.02 mg/kg
COc1ccccc1N1CCN(CCCCOc2ccc3c4c(c(=O)oc3c2)CCCC4)CC1 | 1030 nM | 1120 nM | 757 nM | 
O=c1oc2cc(OCCCCN3CCN(c4cccc(Cl)c4Cl)CC3)ccc2c2c1CCC2 | 79.3 nM | 68 nM | 1900 nM | 
O=c1oc2cc(OCCCCCN3CCC(c4noc5cc(F)ccc45)CC3)ccc2c2c1CCC2 | 426 nM | 1050 nM | 698 nM | 
O=C(CCCN1CCC(O)(c2ccc(Cl)cc2)CC1)c1ccc(F)cc1 [HALOPERIDOL] |  |  |  | ED50 (Mus musculus [3]): 0.38 mg/kg; ED50 (Mus musculus [4]): 0.16 mg/kg; ED50 (Mus musculus [5]): 0.14 mg/kg; selectivity ratio (in vivo [7]): 2.38; selectivity ratio (in vivo [8]): 2.71
O=c1oc2cc(OCCCCN3CCC(c4noc5cc(F)ccc45)CC3)c(Cl)cc2c2c1CCC2 | 249 nM | 140 nM | 146 nM | 
O=c1oc2cc(OCCCCN3CCN(c4ccccn4)CC3)ccc2c2c1CCC2 | 1400 nM | 1260 nM | > 10000 nM | 
O=c1oc2cc(OCCCN3CCC(c4noc5cc(F)ccc45)CC3)ccc2c2ccccc12 | > 10000 nM | > 10000 nM | > 10000 nM | 
O=c1oc2cc(OCCCCN3CCC(c4noc5cc(F)ccc45)CC3)ccc2c2ccccc12 | > 10000 nM | > 10000 nM | > 10000 nM | 
CN1CCN(C2=Nc3cc(Cl)ccc3Nc3ccccc32)CC1 [CLOZAPINE] |  |  |  | ED50 (Mus musculus [3]): 46.14 mg/kg; ED50 (Mus musculus [4]): 2.25 mg/kg; ED50 (Mus musculus [5]): 3.97 mg/kg

Continued by falling Ki [1], values first:

Ki [1] | Ki [2] | Ki (D(2) dopamine receptor) | Compound | also measured
1870 nM | 1600 nM | > 10000 nM | O=c1oc2cc(OCCCCN3CCC(c4nc5ccccc5s4)CC3)ccc2c2c1CCC2 | 
653 nM | 969 nM |  | O=c1oc2cc(OCCCCN3CCN(c4nsc5ccccc45)CC3)ccc2c2c1CCC2 | 
174 nM | 19.3 nM | > 10000 nM | O=c1oc2cc(OCCCCN3CCN(c4cccc(C(F)(F)F)c4)CC3)ccc2c2c1CCC2 | 
126 nM | > 10000 nM | 624 nM | O=c1oc2cc(OCCCCN3CCC(c4noc5cc(F)ccc45)CC3)ccc2c2c1CCCC2 | 
105 nM | 157 nM | 159 nM | COc1ccccc1N1CCN(CCCCOc2ccc3c4c(c(=O)oc3c2Cl)CCC4)CC1 | 
59.2 nM | 56 nM | > 10000 nM | O=c1oc2cc(OCCCCN3CCN(c4ccccc4)CC3)ccc2c2c1CCC2 | 
36.6 nM | 84.8 nM | > 10000 nM | COc1ccccc1N1CCN(CCCCOc2cc3oc(=O)c4c(c3cc2Cl)CCC4)CC1 | 
16.2 nM | 26.8 nM | 1890 nM | O=c1oc2cc(OCCCCN3CCC(c4nc5ccccc5o4)CC3)ccc2c2c1CCC2 | 
13.1 nM | 47.5 nM | 24.4 nM | O=c1oc2cc(OCCCCN3CCC(c4noc5cc(F)ccc45)CC3)ccc2c2c1CCC2 | Ki (Histamine H1 receptor): 21.3 nM; Ki (D(3) dopamine receptor): 110 nM
11.7 nM | 22.1 nM | 1600 nM | Cc1cccc(N2CCN(CCCCOc3ccc4c5c(c(=O)oc4c3)CCC5)CC2)c1C | 
3.9 nM | 0.2 nM | 5.6 nM | COc1ccccc1N1CCN(CCCCOc2ccc3c4c(c(=O)oc3c2)CCC4)CC1 | Ki (Histamine H1 receptor): 699 nM; Ki (D(3) dopamine receptor): 178 nM
